This is an account of results in patent publication US20230148417A1, “FUSED BICYCLIC DERIVATIVE, PREPARATION METHOD THEREFOR, AND PHARMACEUTICAL USE THEREOF” (Jiangsu Hengrui Pharmaceuticals Co., Ltd., priority 2020, published 2023).

What all share (type): biochemical
The target of one experiment is T1, AKT1 (Homo sapiens, UniProt P31749).
T1 construct: purchased Invitrogen P2999
As to the kind of experiment: AKT1 enzymatic assay (KinEASE-STK S3 HTRF kit). Particulars: 2 nM enzyme, 10 μM ATP, 2 μM S3-biotin. The protocol:
(§1) The following methods were used to determine the inhibitory effect of the compounds of the present disclosure on the kinase activity of AKT1/AKT2/AKT3 in vitro. The experimental methodology is briefly described as follows:
(§2) The enzyme activity of AKT1 (Invitrogen, P2999), AKT2 (Invitrogen, PV3184) and AKT3 (Invitrogen, PV3185) was determined using a KinEASE-STK S3 kit (Cisbio, 62ST3PEC). Test compounds were each first subjected to 3-fold gradient dilution with DMSO from 500 μM to obtain a total of 11 concentrations. The 5× buffer in the kit was diluted to 1×buffer, and DTT (Sigma, 43816-10ML) and MgCl2 were added to make the buffer contain 1 mM DTT and 5 mM MgCl2. Compounds were each subjected to 20-fold dilution with 1× buffer for later use. The enzyme solution was obtained by diluting the AKT1/AKT2/AKT3 kinase with 1× buffer. ATP (Invitrogen, PV3227) and S3-biotin in the kit were diluted with 1× buffer to obtain a substrate-ATP mixture solution for later use. 2 μL of the enzyme solution and 4 μL of the compound solution were added to each well of a 384-well plate (Corning, 4513), and the mixture was incubated at room temperature for 30 min, followed by addition of 4 μL of the ATP and S3-biotin mixture solution. The resulting mixture was incubated at room temperature for 90 min. AKT1 enzyme reaction conditions were a final concentration of 2 nM for enzyme, a final concentration of 10 μM for ATP, and a final concentration of 2 μM for S3-biotin. AKT2 enzyme reaction conditions were a final concentration of 5 nM for enzyme, a final concentration of 10 μM for ATP, and a final concentration of 2 μM for S3-biotin. AKT3 enzyme reaction conditions were a final concentration of 0.4 nM for enzyme, a final concentration of 45 μM for ATP, and a final concentration of 2 μM for S3-biotin. The detection solution was prepared by diluting the S3-cryptate and streptavidin-XL665 with the detection buffer in the kit. After incubation, 10 μL of the detection solution was added to each well, the final concentration of S3-cryptate was a concentration obtained by 200-fold dilution of the stock solution, and the final concentration of streptavidin-XL665 was 125 nM. The mixture was incubated at room temperature for 60 min, values of signals emitted at […] and 620 nm after excitation at 337 nm were measured by using an HTRF module of a multi-functional microplate detector (BMG Labtech, PHERAstar FS), and the reading ratio was multiplied by 10,000 to obtain a specific value. Dose-response curves were drawn according to the concentration of the compounds and the specific values by using Graphpad Prism software, and the IC50 values for the inhibitory activity of the compounds were calculated.
On the technique in general: Time-resolved FRET reads energy transfer from a long-lived donor to a nearby acceptor.

Another experiment addresses T2, AKT2 (Homo sapiens, UniProt P31751).
T2 construct: purchased Invitrogen PV3184
Nature of the experiment: AKT2 enzymatic assay (KinEASE-STK S3 HTRF kit). Particulars: 5 nM enzyme, 10 μM ATP, 2 μM S3-biotin. The protocol:
as §1, §2

The target in another experiment is T3, AKT3 (Homo sapiens, UniProt Q9Y243).
T3 construct: purchased Invitrogen PV3185
As to the kind of experiment: AKT3 enzymatic assay (KinEASE-STK S3 HTRF kit). The following applies: 0.4 nM enzyme, 45 μM ATP, 2 μM S3-biotin. The protocol: as §1, §2

T3 sequence (Q9Y243 whole entry): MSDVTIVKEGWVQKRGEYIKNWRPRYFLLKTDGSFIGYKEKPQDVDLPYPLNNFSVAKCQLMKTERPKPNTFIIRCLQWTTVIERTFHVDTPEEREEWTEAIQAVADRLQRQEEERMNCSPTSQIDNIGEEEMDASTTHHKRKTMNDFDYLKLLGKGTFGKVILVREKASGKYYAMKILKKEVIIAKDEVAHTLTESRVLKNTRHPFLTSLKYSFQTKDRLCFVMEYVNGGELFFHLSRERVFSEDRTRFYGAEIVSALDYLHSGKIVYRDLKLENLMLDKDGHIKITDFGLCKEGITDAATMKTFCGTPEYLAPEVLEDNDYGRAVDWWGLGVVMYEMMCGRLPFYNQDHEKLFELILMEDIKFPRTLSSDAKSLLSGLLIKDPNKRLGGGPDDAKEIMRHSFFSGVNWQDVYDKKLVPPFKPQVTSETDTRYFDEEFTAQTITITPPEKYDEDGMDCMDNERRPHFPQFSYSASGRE
T1 sequence (P31749 whole entry): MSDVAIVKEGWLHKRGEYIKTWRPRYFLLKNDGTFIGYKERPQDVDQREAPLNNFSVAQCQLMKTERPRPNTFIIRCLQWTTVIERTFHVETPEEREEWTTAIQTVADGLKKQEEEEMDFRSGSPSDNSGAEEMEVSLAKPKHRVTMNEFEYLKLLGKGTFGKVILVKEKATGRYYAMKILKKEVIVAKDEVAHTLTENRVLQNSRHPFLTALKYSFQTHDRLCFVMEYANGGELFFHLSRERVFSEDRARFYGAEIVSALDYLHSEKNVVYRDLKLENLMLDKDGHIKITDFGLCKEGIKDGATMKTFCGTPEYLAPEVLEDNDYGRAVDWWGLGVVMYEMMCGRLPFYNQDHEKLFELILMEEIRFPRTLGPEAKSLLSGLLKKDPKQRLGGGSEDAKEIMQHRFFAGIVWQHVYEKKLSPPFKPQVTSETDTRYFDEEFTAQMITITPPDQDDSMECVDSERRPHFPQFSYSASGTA
T2 sequence (P31751 whole entry): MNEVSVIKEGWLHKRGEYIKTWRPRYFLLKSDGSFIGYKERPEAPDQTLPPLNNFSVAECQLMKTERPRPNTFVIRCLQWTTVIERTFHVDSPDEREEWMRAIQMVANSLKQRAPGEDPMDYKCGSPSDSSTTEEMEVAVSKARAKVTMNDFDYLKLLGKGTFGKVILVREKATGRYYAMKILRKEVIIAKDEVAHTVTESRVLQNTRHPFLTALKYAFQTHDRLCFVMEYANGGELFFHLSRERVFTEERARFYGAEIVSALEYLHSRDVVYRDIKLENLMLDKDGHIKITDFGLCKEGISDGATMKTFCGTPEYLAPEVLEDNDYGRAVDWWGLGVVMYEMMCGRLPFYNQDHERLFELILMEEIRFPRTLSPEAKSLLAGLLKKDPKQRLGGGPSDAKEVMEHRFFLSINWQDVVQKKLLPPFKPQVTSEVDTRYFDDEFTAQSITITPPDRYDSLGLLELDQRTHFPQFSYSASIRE

What is called IC50 is the concentration needed to halve the response being measured. Lower therefore signals inhibition by little substance. `CC(C)NC[C@@H](C(=O)N1C2COCC1CN(c1ncnc3[nH]ccc13)C2)c1ccc(Cl)cc1` [Example 6, (2S)-1-(7-(7H-pyrrolo[2,3-d]pyrimidin-4-yl)-3-oxa-7,9-diazabicyclo[3.3.1]nonan-9-yl)-2-(4-chlorophenyl)-3-(isopropylamino)propan-1-one]: the values for the IC50 at AKT1, at AKT2 and at AKT3 were 88.4 nM, 141 nM and 268 nM, respectively.
The matching figures for `CC(C)NC[C@@H](C(=O)N1C2CCCC1CN(c1ncnc3[nH]ccc13)C2)c1ccc(Cl)cc1` [Example 5, (2S)-1-(3-(7H-pyrrolo[2,3-d]pyrimidin-4-yl)-3,9-diazabicyclo[3.3.1]nonan-9-yl)-2-(4-chlorophenyl)-3-(isopropylamino)propan-1-one]: 68.1 nM, 70.1 nM and 112 nM.
Taken in the same sequence, the figures for `CC(C)NC[C@@H](C(=O)N1CC2COCC(C1)N2c1ncnc2[nH]ccc12)c1ccc(Cl)cc1` [Example 7, (2S)-1-(9-(7H-pyrrolo[2,3-d]pyrimidin-4-yl)-3-oxa-7,9-diazabicyclo[3.3.1]nonan-7-yl)-2-(4-chlorophenyl)-3-(isopropylamino)-propan-1-one] were 82 nM, 270 nM and 60 nM.
The matching figures for `CC(C)NC[C@@H](C(=O)N1[C@@H]2CC[C@H]1CN(c1ncnc3[nH]ccc13)C2)c1ccc(Cl)cc1` [Example 1, (S)-1-((1R,5S)-3-(7H-pyrrolo[2,3-d]pyrimidin-4-yl)-3,8-diazabicyclo[3.2.1]octan-8-yl)-2-(4-chlorophenyl)-3-(isopropylamino)propan-1-one]: 20 nM, 64.9 nM and 27.6 nM.
Consider `Cc1c[nH]c2ncnc(N3C[C@H]4CC[C@@H](C3)N4C(=O)[C@H](CNC(C)C)c3ccc(Cl)cc3)c12` [Example 3, (S)-2-(4-chlorophenyl)-3-(isopropylamino)-1-((1R,5S)-3-(5-methyl-7H-pyrrolo[2,3-d]pyrimidin-4-yl)-3,8-diazabicyclo[3.2.1]octan-8-yl]propan-1-one], for which the values for the IC50 against AKT1, at AKT2 and against AKT3 were 5.2 nM, 3.9 nM and 1.2 nM, respectively.
The matching figures for `CC(C)NC[C@@H](C(=O)N1[C@@H]2CC[C@H]1CN(c1ncnc3c1[C@H](C)C[C@H]3F)C2)c1ccc(Cl)cc1` [Example 8, (S)-2-(4-chlorophenyl)-1-((1R,5S)-3-((5R,7R)-7-fluoro-5-methyl-6,7-dihydro-5H-cyclopenta[d]pyrimidin-4-yl)-3,8-diazabicyclo[3.2.1]octan-8-yl)-3-(isopropylamino)propan-1-one]: 56.2 nM, 54 nM and 66 nM.
The matching figures for `Cc1c[nH]c2nccc(N3C[C@H]4CC[C@@H](C3)N4C(=O)[C@H](CNC(C)C)c3ccc(Cl)cc3)c12` [Example 9, (S)-2-(4-chlorophenyl)-3-(isopropylamino)-1-((1R,5S)-3-(3-methyl-1H-pyrrolo[2,3-b]pyridin-4-yl)-3,8-diazabicyclo[3.2.1]octan-8-yl)propan-1-one]: 19.6 nM, 13.1 nM and 6.3 nM.
